Values of other authors in patent US20220241222A1, “ATOMOXETINE HYDROCHLORIDE EXTENDED RELEASE COMPOSITIONS AND METHODS OF USE” (CELISTA PHARMACEUTICALS LLC, priority 2019, published 2022).
Like-named read-outs stand apart in the source and are kept apart here.

Legend:
[1] = for mean apparent plasma clearance / mean half-life: oral administration
[2] = oral, immediate release capsules
[3] = CYP2D6 poor metabolizers vs EMs
[4] = primarily as 4-hydroxyatomoxetine-O-glucuronide

In the case of `CNCC[C@@H](Oc1ccccc1C)c1ccccc1.Cl` [Atomoxetine hydrochloride, (−)-N-Methyl-3-phenyl-3-(o-tolyloxy)-propylamine hydrochloride], the absolute bioavailability ([1]; extensive metabolizers) is listed as 63%, the “absorption after oral administration” value ([1]; from immediate release capsules) is listed as “well-absorbed” and the “effect of food on absorption” value [1, 2] is listed as “minimally affected by food”. For the same compound, the estimated half-life [1, 2] was “about 5 hours” and the absolute bioavailability ([1]; poor metabolizers) was 94%.
For `Cc1ccccc1O[C@H](CCN)c1ccccc1` [N-desmethylatomoxetine, N-Desmethylatomoxetine], the “plasma concentrations compared with atomoxetine” value ([1]; circulating metabolite) is listed as “lower concentrations”.
For `CNCC[C@@H](Oc1ccccc1C)c1ccccc1` [atomoxetine, (−)-N-Methyl-3-phenyl-3-(o-tolyloxy)-propylamine], the pressor response (patients with central autonomic impairment (multiple system atrophy)) is listed as “large pressor responses”, the “seated and standing systolic blood pressure compared to placebo” value (pediatric dose of 18 mg) is listed as “significantly increases” and the “AUC of atomoxetine, PMs greater than EMs” value [1, 3] is listed as “approximately 10 fold”. The “Css, max, PMs greater than EMs” value [1, 3] was “about 5 fold”, the “mean apparent plasma clearance” value ([1]; PMs) was 0.5 mL/min/kg and the mean half-life ([1]; PMs) was 21.6 h. The “mean apparent plasma clearance” value ([1]; adult EMs) was 5.83 mL/min/kg, the mean half-life ([1]; adult EMs) was 5.2 h and the “excretion in the feces” value [1, 4] was “less than 17 % of the dose”. For the same compound, the “excretion in the urine” value [1, 4] was “greater than 80 % of the dose”.
